Patent publication US6274715A, “Tricyclic erythromycin derivatives” (priority 1997, dated 2001)
Converted amounts (≈) assume the structure as drawn.

Tests used:
Assay type in all cases: cell-based
[1] = system: ESCHERICHIA COLI KNK 437; conditions: E. coli KNK 437; BHI agar; unit assumed
[2] = system: EN[…] ATCC 8043; experiment: In vitro antibacterial activity, MIC, BHI agar dilution; conditions: E. faecium ATCC 8043, unit assumed
In short: (§1)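 BHI agar dilution: twelve plates with successive compound dilutions, inoculated by replicator with 1:100 culture dilutions (1:10 for slow growers such as Micrococcus and Streptococcus), 20 to 24 hours at 35-37° C. MIC was the lowest concentration giving no growth, slight haze or sparse isolated colonies versus drug-free control; erythromycin A as class reference.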

[3] = system: M[…] ATCC 4698; experiment: as above; conditions: M. luteus ATCC 4698, unit assumed
In short: as §1

[4] = system: M[…] ATCC 9341; experiment: as above; conditions: M. luteus ATCC 9341, unit assumed
In short: as §1

[5] = system: STR[…] 508; experiment: as above; conditions: S. agalactiae CMX 508, unit assumed
In short: as §1

[6] = system: STAPHYLOCOCCUS AUREUS A-5278; experiment: as above; conditions: S. aureus A-5278, unit assumed
[7] = system: CANDIDA ALBICANS CCH 442; experiment: as above; conditions: C. albicans CCH 442, unit assumed
[8] = system: STAPHYLOCOCCUS AUREUS ATCC 6538P; experiment: as above; conditions: S. aureus ATCC 6538P, 35-37° C., 20 to 24 hours, unit assumed
[9] = system: KLEBSIELLA PNEUMONIAE ATCC 8045; experiment: as above; conditions: K. pneumoniae ATCC 8045, unit assumed
[10] = system: STAPHYLOCOCCUS AUREUS A5177; experiment: as above; conditions: S. aureus A5177, unit assumed
[11] = system: STAPHYLOCOCCUS AUREUS 1775; experiment: as above; conditions: S. aureus 1775, unit assumed
[12] = system: ESCHERICHIA COLI DC-2; experiment: as above; conditions: E. coli DC-2, unit assumed
[13] = system: PSEUDOMONAS AERUGINOSA DPHD-5263; experiment: as above; conditions: P. aeruginosa DPHD-5263, unit assumed
[14] = system: STREPTOCOCCUS PYOGENES PIU 2548; experiment: as above; conditions: S. pyogenes PIU 2548, unit assumed
[15] = system: STAPHYLOCOCCUS AUREUS CMX 642A; experiment: as above; conditions: S. aureus CMX 642A, unit assumed
[16] = system: STAPHYLOCOCCUS AUREUS CMX 553; experiment: as above; conditions: S. aureus CMX 553, unit assumed
[17] = system: PSEUDOMONAS AERUGINOSA 5007; experiment: as above; conditions: P. aeruginosa 5007, unit assumed
[18] = system: PSEUDOMONAS AERUGINOSA DPHD-2862; experiment: as above; conditions: P. aeruginosa DPHD-2862, unit assumed
[19] = system: STREPTOCOCCUS PYOGENES 930; experiment: as above; conditions: S. pyogenes 930, unit assumed
[20] = system: PSEUDOMONAS CEPACIA 296I; experiment: as above; conditions: P. cepacia 296I, unit assumed
[21] = system: STREPTOCOCCUS BOVIS A-5169; experiment: as above; conditions: S. bovis A-5169, unit assumed
[22] = system: PROVIDENCIA STUARTII CMX 640; conditions: P. stuartii CMX 640; BHI agar; unit assumed
[23] = system: PSEUDOMONAS AERUGINOSA BMH10; experiment: In vitro antibacterial activity, MIC, BHI agar dilution; conditions: P. aeruginosa BMH10, unit assumed
[24] = system: STREPTOCOCCUS PYOGENES EES61; experiment: as above; conditions: S. pyogenes EES61, unit assumed
[25] = system: STAPHYLOCOCCUS AUREUS NCTC10649M; experiment: as above; conditions: S. aureus NCTC10649M, unit assumed
[26] = system: ENTEROBACTER AEROGENES ATCC 13048; experiment: as above; conditions: E. aerogenes ATCC 13048, unit assumed
[27] = system: ESCHERICHIA COLI JUHL; conditions: E. coli JUHL; BHI agar; unit assumed
[28] = system: STAPHYLOCOCCUS EPIDERMIDIS 3519; conditions: S. epidermidis 3519; BHI agar; unit assumed
[29] = system: ESCHERICHIA COLI H560; experiment: In vitro antibacterial activity, MIC, BHI agar dilution; conditions: E. coli H560, unit assumed
[30] = system: ESCHERICHIA COLI SS; experiment: as above; conditions: E. coli SS, unit assumed
[31] = system: MYCOBACTERIUM SMEGMATIS ATCC 114; experiment: as above; conditions: M. smegmatis ATCC 114, unit assumed
[32] = system: PSEUDOMONAS AERUGINOSA K799/WT; experiment: as above; conditions: P. aeruginosa K799/WT, unit assumed
[33] = system: PSEUDOMONAS AERUGINOSA K799/61; experiment: as above; conditions: P. aeruginosa K799/61, unit assumed

SMILES	MIC [1] [µg/mL]	MIC [2] [µg/mL]	MIC [3] [µg/mL]	MIC [4] [µg/mL]	MIC [5] [µg/mL]	MIC [6] [µg/mL]	MIC [7] [µg/mL]	MIC [9] [µg/mL]	MIC [10] [µg/mL]	MIC [11] [µg/mL]	MIC [12] [µg/mL]	MIC [13] [µg/mL]	MIC [14] [µg/mL]	MIC [15] [µg/mL]	MIC [16] [µg/mL]	MIC [17] [µg/mL]	MIC [18] [µg/mL]	MIC [19] [µg/mL]	MIC [20] [µg/mL]	MIC [21] [µg/mL]	further results
CC[C@H]1OC(=O)[C@H](C)C(=O)[C@H](C)[C@@H](O[C@@H]2O[C@H](C)C[C@H](N(C)C)[C@H]2O)[C@](C)(OC)C[C@@H](C)C2=NC[C@H](C)N3C(=O)O[C@@]1(C)[C@H]3[C@H]2C [Example 8]	100 (≈ 153 µM)	0.78 (≈ 1.2 µM)	1.56 (≈ 2.39 µM)	1.56 (≈ 2.39 µM)	0.1 (≈ 0.153 µM)	> 100	> 100	100 (≈ 153 µM)	0.78 (≈ 1.2 µM)	> 100	50 (≈ 76.7 µM)	> 100	0.78 (≈ 1.2 µM)	0.78 (≈ 1.2 µM)	0.78 (≈ 1.2 µM)	> 100	> 100	> 100	> 100	0.1 (≈ 0.153 µM)	MIC [8]: 0.78 µg/mL (≈ 1.2 µM); MIC [22]: > 100 µg/mL; MIC [23]: 100 µg/mL (≈ 153 µM); MIC [24]: 0.1 µg/mL (≈ 0.153 µM); MIC [25]: 0.78 µg/mL (≈ 1.2 µM); MIC [26]: 100 µg/mL (≈ 153 µM); MIC [27]: 100 µg/mL (≈ 153 µM); MIC [28]: 0.78 µg/mL (≈ 1.2 µM); MIC [29]: 25 µg/mL (≈ 38.4 µM); MIC [30]: 0.78 µg/mL (≈ 1.2 µM); MIC [31]: 6.2 µg/mL (≈ 9.51 µM); MIC [32]: 100 µg/mL (≈ 153 µM)
CC[C@H]1OC(=O)[C@H](C)C(=O)[C@H](C)[C@@H](O[C@@H]2O[C@H](C)C[C@H](N(C)C)[C@H]2O)[C@](C)(OC)C[C@@H](C)C2=N[C@@H](C)[C@H](C)N3C(=O)O[C@@]1(C)[C@H]3[C@H]2C [Example 11]	25 (≈ 37.5 µM)	0.1 (≈ 0.15 µM)	0.39 (≈ 0.586 µM)	0.2 (≈ 0.3 µM)	0.05 (≈ 0.0751 µM)	> 100	> 100	12.5 (≈ 18.8 µM)	0.39 (≈ 0.586 µM)	> 100	25 (≈ 37.5 µM)	> 100	0.39 (≈ 0.586 µM)	0.39 (≈ 0.586 µM)	0.39 (≈ 0.586 µM)	> 100	> 100	> 100	> 100	0.01 (≈ 0.015 µM)	MIC [8]: 0.39 µg/mL (≈ 0.586 µM); MIC [22]: > 100 µg/mL; MIC [23]: > 100 µg/mL; MIC [24]: 0.005 µg/mL (≈ 0.00751 µM); MIC [25]: 0.39 µg/mL (≈ 0.586 µM); MIC [26]: 25 µg/mL (≈ 37.5 µM); MIC [27]: 25 µg/mL (≈ 37.5 µM); MIC [28]: 0.39 µg/mL (≈ 0.586 µM); MIC [29]: 6.2 µg/mL (≈ 9.31 µM); MIC [30]: 0.39 µg/mL (≈ 0.586 µM); MIC [31]: 6.2 µg/mL (≈ 9.31 µM); MIC [32]: > 100 µg/mL
C=CCN1CC2N=C3[C@H](C)C[C@@](C)(OC)[C@H](O[C@@H]4O[C@H](C)C[C@H](N(C)C)[C@H]4O)[C@@H](C)C(=O)[C@@H](C)C(=O)O[C@H](CC)[C@@]4(C)OC(=O)N(C2C1)[C@@H]4[C@H]3C (stereo partly shown) [Example 116]	> 100	0.2 (≈ 0.278 µM)	0.39 (≈ 0.542 µM)	0.2 (≈ 0.278 µM)	0.05 (≈ 0.0695 µM)	> 100	> 100	> 100	0.78 (≈ 1.08 µM)	> 100	100 (≈ 139 µM)	> 100	0.78 (≈ 1.08 µM)	0.78 (≈ 1.08 µM)	0.78 (≈ 1.08 µM)	> 100	> 100	> 100	> 100	≤ 0.005	MIC [8]: 0.78 µg/mL (≈ 1.08 µM); MIC [33]: 3.1 µg/mL (≈ 4.31 µM); MIC [22]: > 100 µg/mL; MIC [23]: 100 µg/mL (≈ 139 µM); MIC [25]: 0.39 µg/mL (≈ 0.542 µM); MIC [26]: > 100 µg/mL; MIC [27]: 50 µg/mL (≈ 69.5 µM); MIC [28]: 0.78 µg/mL (≈ 1.08 µM); MIC [29]: 50 µg/mL (≈ 69.5 µM); MIC [30]: 0.39 µg/mL (≈ 0.542 µM); MIC [31]: 1.56 µg/mL (≈ 2.17 µM); MIC [32]: > 100 µg/mL
CCOC(=O)CCN1CC2N=C3C(C)CC(C)(OC)C(OC4OC(C)CC(N(C)C)C4O)C(C)C(=O)C(C)C(=O)OC(CC)C4(C)OC(=O)N(C2C1)C4C3C (stereo not shown) [Example 130]	> 100	0.2 (≈ 0.257 µM)	0.78 (≈ 1 µM)	0.2 (≈ 0.257 µM)	0.1 (≈ 0.128 µM)	> 100	> 100	> 100	0.78 (≈ 1 µM)	> 100	> 100	> 100	6.2 (≈ 7.96 µM)	1.56 (≈ 2 µM)	1.56 (≈ 2 µM)	> 100	> 100	> 100	> 100	0.1 (≈ 0.128 µM)	MIC [33]: 3.1 µg/mL (≈ 3.98 µM); MIC [22]: > 100 µg/mL; MIC [23]: > 100 µg/mL; MIC [24]: 0.1 µg/mL (≈ 0.128 µM); MIC [26]: > 100 µg/mL; MIC [27]: > 100 µg/mL; MIC [28]: 3.1 µg/mL (≈ 3.98 µM); MIC [29]: > 100 µg/mL; MIC [30]: 0.78 µg/mL (≈ 1 µM); MIC [31]: 25 µg/mL (≈ 32.1 µM); MIC [32]: > 100 µg/mL
